Data as given in patent publication US20240131180A1, “DRUG ANTIBODY CONJUGATES” (PHARMA MAR, S.A., priority 2020, published 2024).
pIC50: −log10 of the molar value. Values joined by “and” are separate entries in the source; they are usually repeats but may differ in a detail not shown here. Equal entries are not always repeated. Where two headings read alike, the source gives them in different places.

Columns and labels:
A549 = assay: SRB colorimetric assay of cell growth and viability, A549; format: cell-based; conditions: for CC50 / GI50: Homo sapiens; for CC50: A549, 72 h, read-out: LC50 A549; for GI50: A549, NCI algorithm; for GI50 / TGI A549: 72 hours treatment, SRB; for TGI A549: total cell growth inhibition
Text: (§1) Using the mean±SD of triplicate cultures, a dose-response curve was automatically generated using nonlinear regression analysis.

HT29 = assay: SRB colorimetric assay of cell growth and viability, HT29; format: cell-based; conditions: for CC50 / GI50: Homo sapiens; for CC50: HT-29, 72 h, read-out: LC50 HT29; for GI50: HT-29, NCI algorithm; for GI50 / TGI HT29: 72 hours treatment, SRB; for TGI HT29: total cell growth inhibition
Text: as §1

MDA-MB-231 [1] = assay: SRB colorimetric assay of cell growth and viability, MDA-MB-231; format: cell-based; conditions: for LC50 / GI50: Homo sapiens; for LC50: MDA-MB-231, 72 h, read-out: LC50 MDA-MB-231; for GI50: MDA-MB-231, NCI algorithm; for GI50 / TGI MDA-MB-231: 72 hours treatment, SRB; for TGI MDA-MB-231: total cell growth inhibition
Text: as §1

PSN1 = assay: SRB colorimetric assay of cell growth and viability, PSN1; format: cell-based; conditions: for LC50 / GI50: Homo sapiens; for LC50: PSN1, 72 h, read-out: LC50 PSN1; for GI50: PSN1, NCI algorithm; for GI50 / TGI PSN1: 72 hours treatment, SRB; for TGI PSN1: total cell growth inhibition
Text: as §1

SK-BR-3 = assay: SRB cytotoxicity assay, SK-BR-3 (HER2+); format: cell-based; conditions: Homo sapiens, SK-BR-3, 72 h, read-out: IC50 SK-BR-3
Procedure: (§2) For SK-BR-3, HCC-1954, MDA-MB-231 and MCF-7 cells, a colorimetric assay using Sulforhodamine B (SRB) was adapted for quantitative measurement of cell growth and cytotoxicity, as described in V. Vichai and K. Kirtikara. Sulforhodamine B colorimetric assay for cytotoxicity screening. Nature Protocols, 2006, 1, 1112-1116. Briefly, cells were seeded in 96-well microtiter plates and allowed to stand for 24 hours in drug-free medium before treatment with vehicle alone or with the tested substances for 72 hours.
(§3) Cell survival was expressed as percentage of control, untreated cell survival.

HCC-1954 = assay: SRB cytotoxicity assay, HCC-1954 (HER2+); format: cell-based; conditions: Homo sapiens, HCC1954, 72 h, read-out: IC50 HCC-1954
Procedure: as §2, §3

MDA-MB-231 [2] = assay: SRB cytotoxicity assay, MDA-MB-231 (HER2-); format: cell-based; conditions: Homo sapiens, MDA-MB-231, 72 h, read-out: IC50 MDA-MB-231
Procedure: as §2, §3

MCF-7 = assay: SRB cytotoxicity assay, MCF-7 (HER2-); format: cell-based; conditions: Homo sapiens, MCF7, 72 h, read-out: IC50 MCF-7
Procedure: as §2, §3

[3] = tested on: SK-BR-3, HCC-1954, MDA-MB-231 and MCF-7 cells; assay: cells; format: cell-based; conditions: Homo sapiens, 72 h
Procedure: as §2, §3

P388 lymphoma = conditions: very low concentrations; cited from earlier work
B16 melanoma = conditions: very low concentrations; cited from earlier work
Lewis lung carcinoma = conditions: very low concentrations; cited from earlier work
[4] = read-out: geometric mean IC50 value across the whole cell panel

Compound	CC50 (A549) [nM]	GI50 (A549) [nM]	TGI A549 (A549) [Molar]	CC50 (HT29) [nM]	GI50 (HT29) [nM]	TGI HT29 (HT29) [Molar]	LC50 (MDA-MB-231 [1]) [nM]	GI50 (MDA-MB-231 [1]) [nM]	TGI MDA-MB-231 (MDA-MB-231 [1]) [Molar]	LC50 (PSN1) [nM]	GI50 (PSN1) [nM]	TGI PSN1 (PSN1) [Molar]	also measured
COc1ccc2[nH]c3c(c2c1)CCN[C@]31CS[C@@H]2c3c(OC(C)=O)c(C)c4c(c3[C@H](COC1=O)N1[C@@H]2[C@@H]2N[C@@H](Cc3cc(C)c(OC)c(O)c32)[C@@H]1C#N)OCO4 [Compound 2]	> 1280	12.8	1.28E−08	≥ 1280	5.13	5.64E−09	5.77	5	5.26E−09	5	2.05	3.08E−09	IC50 (SK-BR-3): 0.00096 µg/mL and 1.23 nM; IC50 (HCC-1954): 0.0018 µg/mL and 2.31 nM; IC50 (MDA-MB-231 [2]): 0.00069 µg/mL and 0.885 nM; IC50 (MCF-7): 0.0017 µg/mL and 2.18 nM; pIC50 [3, 4]: 8.82
COc1ccc2[nH]c3c(c2c1)CCN[C@]31CS[C@@H]2c3c(OC(C)=O)c(C)c4c(c3[C@H](COC1=O)N1[C@@H]2[C@@H]2N[C@@H](Cc3cc(C)c(OC)c(O)c32)[C@@H]1O)OCO4 [Compound 1]	7.78	1.82	3.37E−09	> 130	1.28	1.43E−09	2.46	0.752	1.30E−09	2.34	1.22	1.69E−09	IC50 (SK-BR-3): 0.00086 µg/mL and 1.12 nM; IC50 (HCC-1954): 0.0015 µg/mL and 1.95 nM; IC50 (MDA-MB-231 [2]): 0.00068 µg/mL and 0.882 nM; IC50 (MCF-7): 0.0012 µg/mL and 1.56 nM; pIC50 ([3]; read-out: IC50 values in all the tumor cell lines (range)): 8.71 to 9.05; pIC50 [3, 4]: 8.88
COc1c(C)cc2c(c1O)[C@H]1N[C@@H](C2)[C@H](O)N2[C@H]1[C@@H]1SC[C@]3(NCCc4c3[nH]c3ccccc43)C(=O)OC[C@H]2c2c3c(c(C)c(OC(C)=O)c21)OCO3 [ET-722, Ecteinascidin 722]	> 135	1.35	1.35E−09	> 135	1.35	1.48E−09	2.56	0.891	1.48E−09	3.1	1.48	2.16E−09	protection of mice in vivo against P388 lymphoma (P388 lymphoma): protects mice in vivo at very low concentrations; protection of mice in vivo against B16 melanoma (B16 melanoma): protects mice in vivo at very low concentrations; protection of mice in vivo against Lewis lung carcinoma (Lewis lung carcinoma): protects mice in vivo at very low concentrations
COc1c(C)cc2c(c1O)[C@H]1N[C@@H](C2)[C@H](O)N2[C@H]1[C@@H]1SC[C@]3(NCCc4c3oc3ccccc43)C(=O)OC[C@H]2c2c3c(c(C)c(OC(C)=O)c21)OCO3 [Compound 15]	> 135	12.1	2.56E−08	> 135	8.76	9.57E−09	24.3	7.14	1.16E−08	45.8	9.98	1.48E−08	–
COc1c(C)cc2c(c1O)[C@H]1N[C@@H](C2)[C@H](C#N)N2[C@H]1[C@@H]1SC[C@]3(NCCc4c3oc3ccccc43)C(=O)OC[C@H]2c2c3c(c(C)c(OC(C)=O)c21)OCO3 [Compound 14]	> 133	8.79	1.73E−08	> 133	8.52	9.19E−09	29.3	6.66	1.13E−08	22.6	9.72	1.33E−08	–
COc1ccc2[nH]c3c(c2c1)C[C@H](CO)N[C@]31CS[C@@H]2c3c(OC(C)=O)c(C)c4c(c3[C@H](COC1=O)N1[C@@H]2[C@@H]2N[C@@H](Cc3cc(C)c(OC)c(O)c32)[C@@H]1C#N)OCO4 [Compound 10-R]	> 123	4.32	1.20E−08	> 123	0.864	1.61E−09	3.09	0.679	1.21E−09	> 123	0.753	1.48E−09	–
COc1ccc2[nH]c3c(c2c1)C[C@H](CO)N[C@]31CS[C@@H]2c3c(OC(C)=O)c(C)c4c(c3[C@H](COC1=O)N1[C@@H]2[C@@H]2N[C@@H](Cc3cc(C)c(OC)c(O)c32)[C@@H]1O)OCO4 [Compound 11-R]	> 125	15	4.50E−08	> 125	2	3.62E−09	7.24	1.62	2.87E−09	15	2.12	3.62E−09	–
